Tested on: HGF-dependent scattering phenotype of HPAF-II cells
Experiment: HPAF scatter assay
Format: cell-based
Conditions: Homo sapiens, 4 ng/ml HGF, 22 hrs, read-out: inhibitory activity (IC50), scattering phenotype
Method: The ability of compounds to inhibit the HGF-dependent scattering phenotype of HPAF-II cells was measured using a modified version of the assay described by Chan et al. 2008 (Chan et al. J. Biomolec. Screening 2008; 13:847-854). Briefly, HPAF-II cells (ATCC #CRL1997) were plated in 50 uL DMEM (#11995)+10% FBS+P/S at a density of 3,000 cells/well in Costar black clear bottom 384-well plates [Product no. 3712] and incubated at 37° C. overnight. The next day, […] of serially diluted compound in DMSO was added to each well in the cell plate to give a nine-point 1:3 dilution series with final concentrations ranging from 20 uM to 3 nM. Cells were preincubated with compound at 37° C. for one hour. To stimulate the scattering phenotype, 10 uL of 24 ng/ml HGF (R&D Systems 294-HGN) was next added to each well, giving a final concentration of 4 ng/ml HGF. Cells were incubated with both compound and HGF at 37° C. for an additional 22 hrs. Control […] wells without compound treatment and control wells without HGF or compound were included on each plate. Next, to visualize the cells, each plate was washed in PBS 1×, fixed in ice cold methanol for 3 min at RT, washed in PBS 3×, stained with Hoechst (1:2500) in PBS/0.1% Triton for 15 min in the dark, and finally washed in PBS 4× before imaging on an INCell Analyzer 1000 (GE Healthcare). Individual cell by cell SOI internuclear distance information was exported and then processed using a Pipeline Pilot (Accelrys) protocol to calculate the percentage of scattered cells. The percent inhibition of the scattering phenotype was calculated relative to cells without compound treatment, plotted against the log of compound concentration and then fit to a four parameter logistic fit to obtain IC50 values.

Row | SMILES | IC50 [µM]
1 | Cn1cc(-c2cnc3ccc(OCc4nn(-c5cnn(C)c5)ccc4=S)cc3c2)cn1 [Example 21, 1-(1-methyl-1H-pyrazol-4-yl)-3-({[3-(1-methyl-1H-pyrazol-4-yl)quinolin-6-yl]oxy}methyl)pyridazin-4(1H)-thione] | 0.015 to 0.55
2 | CCCn1cnc(-c2cccc(Cc3nn(-c4cnn(CC)c4)ccc3=S)c2)n1 [Example 5, 1-(1-ethyl-1H-pyrazol-4-yl)-3-[3-(1-propyl-1H-1,2,4-triazol-3-yl)benzyl]pyridazin-4(1H)-thione] | 0.015 to 0.55
3 | COCCOc1cnc(-c2cccc(Cc3nn(-c4cnn(C)c4)ccc3=S)c2)nc1 [Example 3, 3-{3-[5-(2-methoxyethoxy)pyrimidin-2-yl]benzyl}-1-(1-methyl-1H-pyrazol-4-yl)pyridazin-4(1H)-thione] | 0.015 to 0.55
4 | COCCOC(=O)Nc1cccc(Cc2nn(-c3cnn(C)c3)ccc2=S)c1 [Example 8, 2-methoxyethyl (3-{[1-(1-methyl-1H-pyrazol-4-yl)-4-thioxo-1,4-dihydropyridazin-3-yl]methyl}phenyl)carbamate] | 0.015 to 0.55
5 | CCOc1cnc2ccc(OCc3nn(-c4cnn(C)c4)ccc3=S)cc2c1 [Example 19, 3-{[(3-Ethoxyquinolin-6-yl)oxy]methyl}-1-(1-methyl-1H-pyrazol-4-yl)pyridazin-4(1H)-thione] | 0.015 to 0.55
